Data set [1] concerns C. Difficile (spores). In words: Additional AM testing of derivatized cotton, C. Difficile spores. Format: cell-based. The following applies: derivatized cotton fabrics.
Data set [2] relates to C. Albicans. In words: Broad spectrum AM testing of derivatized cotton, C. Albicans. Type of data set: cell-based. The following applies: derivatized cotton fabrics. On the procedure:
(§1) The antimicrobial testing during this effort was performed. The evaluation of the AM efficacy has been performed using a standard method, based on the AATCC 100 protocol.
(§2) The experimental procedure starts with 1 mL of a bacterial culture (S. aureus representative for Gram positive bacteria or K. pneumoniae representative for Gram negative bacteria) which is inoculated to 2-3 fabric swatches (full absorption). The mixture is incubated for selected times. The mixture is then diluted with PBS and a bacterial culture (agar plate) is performed. The colony forming units (CFUs) are determined and the results are expressed as kill efficiency (percentage kill relative to the initial concentration).
(§3) The QAC-I derivatized cotton fabrics were evaluated against several strains of Gram positive and Gram negative bacteria and one fungus (C. Albicans).

Data set [3] concerns skin of New Zealand White rabbits. In words: Direct Primary Skin Irritation Test - ISO. Format: in vivo. The protocol:
Cotton fabrics derivatized with QAC-I dendrimer was evaluated at Toxikon for skin irritation using a GLP protocol based on “Direct Primary Skin Irritation Test—ISO”. The test article was evaluated for its potential to produce primary skin irritation after a single topical minimum 4 hour application to the skin of New Zealand White rabbits. Test sites were scored for erythema and/or edema.

For data set [4], the system named is MRSA. Description: Additional AM testing of derivatized cotton, MRSA. The following applies: derivatized cotton fabrics. Type of data set: cell-based.
Data set [5] relates to S. Epidermisis. In words: Broad spectrum AM testing of derivatized cotton, S. Epidermisis. Type of data set: cell-based. The following applies: derivatized cotton fabrics. On the procedure: as §1, §2, §3
Data set [6] relates to S. aureus. In words: AATCC 100 antimicrobial test of derivatized fabrics, S. aureus. Format: cell-based. The following applies: for % Kill at 4 hours / % Kill at 24 hours: dendrimer attached to cotton fabric, S. aureus; for % kill at 4 hrs.: direct functionalization, ~1×10^6 CFU/mL; for % Kill of laundered fabric (4 hrs.): derivatized cotton. The protocol: The antimicrobial testing during this effort was performed. […] The mixture is incubated for selected times. The mixture is then diluted with PBS and a bacterial culture (agar plate) is performed. The colony forming units (CFUs) are determined and the results are expressed as kill efficiency (percentage kill relative to the initial concentration).

The subject of data set [7] is C. Difficile (vegetative). Description: Additional AM testing of derivatized cotton, C. Difficile vegetative cells. Type of data set: cell-based. The following applies: derivatized cotton fabrics.
Data set [8] has as its system K. pneumoniae. In words: AATCC 100 antimicrobial test of fabrics, K. pneumoniae. Format: cell-based. The following applies: for AM efficacy against K. Pneumoniae (FIG. 37): derivatized cotton swatches. On the procedure: as §1, §2
The silver fabrics are considered to be the state-of the art in the realm of AM textiles. Two silver-based consumer products (cotton fabrics) were selected for evaluation of their AM properties compared to those of QAC-I derivatized cotton. The first material comprised a silver-shirt which contained silver nanoparticles. The second material was a silver-towel which contained a permanent coating of silver ions. Swatches of both products were generated and the antimicrobial efficacy was tested using the AATCC 100 protocol (K. Pneumoniae at 4, 24 and 48 hrs. time points).

The subject of data set [9] is MS2. The following applies: derivatized cotton fabrics. From the text: Cotton fabrics derivatized with imidazolium dendrimer were further evaluated for the AM efficacy against other pathogens.
Data set [10] has as its system E. Coli. Description: JIS Z 2801 antimicrobial test of metallic coupons, E. Coli. Format: cell-based. The following applies: clear anodized aluminum coupon, front side; vs control without dendrimer; 24 hours. On the procedure: The AM testing was performed using the standardized JIS Z 2801 method against the Gram negative, E. Coli bacteria. A summary of the procedure is presented below:
The test microorganism is prepared, usually by growth in a liquid culture medium. • The suspension of test microorganism is standardized by dilution in a nutritive broth (this affords microorganisms the opportunity to proliferate during the test). • Control and test surfaces are inoculated with microorganisms, and then the microbial inoculum is covered with a thin, sterile film. Covering the inoculum spreads it, prevents it from evaporating, and ensures close contact with the antimicrobial surface. • Microbial concentrations are determined at “time zero” by elution followed by dilution and plating to agar. • A control is run to verify that the neutralization/elution method effectively neutralizes the antimicrobial agent in the antimicrobial surface being tested. • Inoculated, covered control and antimicrobial test surfaces are allowed to incubate undisturbed in a humid environment for 24 hours, usually at body temperature. • After incubation, microbial concentrations are determined. Reduction of microorganisms relative to the control surface is calculated.

On to `CCCCCCCCCCn1cc[n+](CCNC(=O)NCCCNC(=O)CCN(CCCNC(=O)CCN(CCC(=O)NCCCN(CCC(=O)NCCCNC(=O)NCC[n+]2ccn(CCCCCCCCCC)c2C)CCC(=O)NCCCNC(=O)NCC[n+]2ccn(CCCCCCCCCC)c2C)CCc2ccc(Nc3nc(Cl)nc(Cl)n3)cc2)CCC(=O)NCCCNC(=O)NCC[n+]2ccn(CCCCCCCCCC)c2C)c1C.[Cl-].[Cl-].[Cl-].[Cl-]` [QAC-I], for which the “% Reduction” value in data set [1] stood at 99.82%; in [4], 99.80%; in data set [7], 99.20%; in [9], 99.95%. The “AM Efficacy (max.)” value in data set [2] is on record as above 99.99%; in data set [5], above 99.99%; in data set [6] (derivatized cotton fabrics, S. Aureus) it was above 99.999%; in data set [8] (derivatized cotton fabrics, K. Pneumoniae), above 99.99%. Further, the Skin irritation classification result in data set [3] (criteria of the protocol) was “negligible irritant”. The Edema score in data set [3] (test sites, 24 Hours, Site 1) is 0/0; in [3] (test sites, 24 Hours, Site 2), 0/0; in data set [3] (test sites, 48 Hours, Site 1), 0/0; in data set [3] (test sites, 48 Hours, Site 2) it was 0/0; in data set [3] (test sites, 60 Minutes, Site 1) it was 0/0; in data set [3] (test sites, 60 Minutes, Site 2), 0/0. Further, the Edema score was 0/0 in [3] (test sites, 72 Hours, Site 1) and 0/0 in data set [3] (test sites, 72 Hours, Site 2). The Erythema score is listed as 0/0 in [3] (test sites, 24 Hours, Site 1); 0/0 in [3] (test sites, 24 Hours, Site 2); 0/0 in [3] (test sites, 48 Hours, Site 1); 0/0 in data set [3] (test sites, 48 Hours, Site 2); 0/0 in [3] (test sites, 60 Minutes, Site 1); 0/0 in [3] (test sites, 60 Minutes, Site 2). The Erythema score is recorded as 0/0 in [3] (test sites, 72 Hours, Site 1) and 0/0 in data set [3] (test sites, 72 Hours, Site 2). Besides, the “Total (Erythema + Edema Scores)/(2 Test Sites × 3 Observation Points)” value in data set [3] (test sites, per animal, 60 minute scores not included) stood at 0.0. Further, the “% Kill at 4 hours” value in data set [6] is above 99%. For the same compound, the “% Kill at 24 hours” value in data set [6] is above 99%. For the same compound, the “% kill at 4 hrs.” value in data set [6] (derivatized NYCO fabric) and in [6] (derivatized polyester fabric) was above 99% each time. The “% Kill of laundered fabric (4 hrs.)” value in data set [6] (reverse protocol, laundering detergent None, S. Aureus, % kill relative to final amount of bacteria) is given as above 99.99%; in [6] (1 accelerated cycle 45 minutes at 49° C., Tide 0.23% w/v, S. Aureus) it was 24%; in data set [6] (1 accelerated cycle 45 minutes at 49° C., Tween-20 0.23% w/v, S. Aureus), above 99.99%. Also, the “AM efficacy against K. Pneumoniae (FIG. 37)” value in data set [8] is on record as “very high efficacy”.

Take `CCCCCCCCCCCC[N+](C)(C)CCNC(=O)NCCCNC(=O)CCN(CCCNC(=O)CCN(CCC(=O)NCCCN(CCC(=O)NCCCNC(=O)NCC[N+](C)(C)CCCCCCCCCCCC)CCC(=O)NCCCNC(=O)NCC[N+](C)(C)CCCCCCCCCCCC)CCc1ccc(Nc2nc(Cl)nc(Cl)n2)cc1)CCC(=O)NCCCNC(=O)NCC[N+](C)(C)CCCCCCCCCCCC.[Cl-].[Cl-].[Cl-].[Cl-]` [QAC-4]: in [6], the “% Kill at 4 hours” value was above 99% and the “% Kill at 24 hours” value amounted to 62%. Moreover, the “AM efficacy against K. Pneumoniae (FIG. 37)” value in data set [8] was “very high efficacy”.

On to `CCCCCCCCCCCCCCCCCC[N+](C)(C)CCNC(=O)NCCCNC(=O)CCN(CCCNC(=O)CCN(CCC(=O)NCCCN(CCC(=O)NCCCNC(=O)NCC[N+](C)(C)CCCCCCCCCCCCCCCCCC)CCC(=O)NCCCNC(=O)NCC[N+](C)(C)CCCCCCCCCCCCCCCCCC)CCc1ccc(Nc2nc(Cl)nc(Cl)n2)cc1)CCC(=O)NCCCNC(=O)NCC[N+](C)(C)CCCCCCCCCCCCCCCCCC.[Cl-].[Cl-].[Cl-].[Cl-]` [QAC-C18], for which, in data set [6], the “% Kill at 4 hours” value stood at 78% and the “% Kill at 24 hours” value is recorded as 11%.

On to `CCCCCCCCCCn1cc[n+](CCNC(=O)NCCCNC(=O)CCN(CCCNC(=O)CCN(CCC(=O)NCCCN(CCC(=O)NCCCNC(=O)NCC[n+]2ccn(CCCCCCCCCC)c2C)CCC(=O)NCCCNC(=O)NCC[n+]2ccn(CCCCCCCCCC)c2C)CCc2ccc(NC(=O)CP(=O)(O)O)cc2)CCC(=O)NCCCNC(=O)NCC[n+]2ccn(CCCCCCCCCC)c2C)c1C.[Cl-].[Cl-].[Cl-].[Cl-]` [AM compound (1)], for which, in data set [10], the “log reduction of the inoculum” value is listed as above 6 log and the “reduction of the inoculum (%)” value is listed as above 99.9999%.

As for `CCCCCCCCCCCC[N+](C)(CCCCCCCCCCCC)CCNC(=O)NCCCNC(=O)CCN(CCCNC(=O)CCN(CCC(=O)NCCCN(CCC(=O)NCCCNC(=O)NCC[N+](C)(CCCCCCCCCCCC)CCCCCCCCCCCC)CCC(=O)NCCCNC(=O)NCC[N+](C)(CCCCCCCCCCCC)CCCCCCCCCCCC)CCc1ccc(Nc2nc(Cl)nc(Cl)n2)cc1)CCC(=O)NCCCNC(=O)NCC[N+](C)(CCCCCCCCCCCC)CCCCCCCCCCCC.[Cl-].[Cl-].[Cl-].[Cl-]` [QAC-D], the “% Kill at 4 hours” value in data set [6] is on record as −38%.
